Measured values: ChEMBL document CHEMBL4007507 (J Med Chem, 2017)
Blank lines part the entries; values can stand above or below the compound they belong to. Active and inactive are the calls of the source. The calls are words filed in the database; no cut-off is given here.

Columns and labels:
SJSA-1 [1] = assay: cells; details: Homo sapiens
physchem [2] = details: 1:1 CH3CN/H2O solution
in vivo [3] = details: rat, iv, 5 mg/kg
in vivo [4] = details: rat, po, 25 mg/kg
in vivo [5] = details: rat, iv, 5 mg/kg; remark: listed apart in the source
physchem [6] = details: 1:1 MeOH/H2O solution
in vivo [7] = details: rat, iv, 5 mg/kg; remark: listed apart in the source
SJSA-1 [8] = details: Homo sapiens, 50 mg/kg
physchem [9] = details: cell culture media
in vivo [10] = details: rat, iv, 10 mg/kg
in vivo [11] = details: rat, po, 25 mg/kg; remark: listed apart in the source
in vivo [12] = details: rat, iv, 10 mg/kg; remark: listed apart in the source
in vivo [13] = details: rat, iv, 10 mg/kg; remark: listed apart in the source
in vivo [14] = details: rat, po, 25 mg/kg; remark: listed apart in the source
RS4-11 [15] = details: Homo sapiens
SAOS-2 = assay: cells; details: Homo sapiens
SJSA-1 [16] = details: Homo sapiens, 30 mg/kg
LNCaP = assay: cells; details: Homo sapiens
HCT-116 [17] = assay: cells; details: Homo sapiens
PC-3 = assay: cells; details: Homo sapiens
HCT-116 [18] = assay: cells; details: Homo sapiens; remark: listed apart in the source
SJSA-1 [19] = details: Homo sapiens, 100 mg/kg
RS4-11 [20] = assay: cells; details: Homo sapiens
SJSA-1 [21] = details: Homo sapiens

Structure (SMILES): CC(C)(C)C[C@@H]1N[C@@H](C(=O)N[C@H]2CC[C@H](O)CC2)[C@H](c2cccc(Cl)c2F)[C@]12C(=O)Nc1cc(Cl)ccc12 [SAR-405838]
remaining at 168 h (physchem [2]): 93 to 96%
Vd (in vivo [3]): 2.98 L/kg
half-life (in vivo [4]): 1.6 h
AUC (in vivo [5]): 4.63 µg·h/mL
remaining at 168 h (physchem [6]): 93 to 96%
clearance (in vivo [7]): 1.03 L/h/kg
TGI (SJSA-1 [8]): Active
remaining at 168 h (physchem [9]): 93 to 96%

Structure (SMILES): CC1(C)CCC2(CC1)N[C@@H](C(=O)N[C@H]1CC[C@H](O)CC1)[C@H](c1cccc(Cl)c1F)[C@]21C(=O)Nc2cc(Cl)ccc21
IC50 (SJSA-1 [1]): 0.048 µM

Structure (SMILES): O=C(N[C@H]1CC[C@@H](C(=O)O)CC1)[C@@H]1NC2(CCCCC2)[C@@]2(C(=O)Nc3cc(Cl)ccc32)[C@H]1c1cccc(Cl)c1F
IC50 (SJSA-1 [1]): 1.74 µM

Structure (SMILES): O=C(NC1CCS(=O)(=O)CC1)[C@@H]1NC2(CCCCC2)[C@@]2(C(=O)Nc3cc(Cl)ccc32)[C@H]1c1cccc(Cl)c1F
IC50 (SJSA-1 [1]): 0.54 µM

Structure (SMILES): O=C(NC12CCC(C(=O)O)(CC1)CC2)[C@@H]1NC2(CCC(F)(F)CC2)[C@@]2(C(=O)Nc3cc(Cl)ccc32)[C@H]1c1cccc(Cl)c1F
IC50 (SJSA-1 [1]): 0.17 µM

Structure (SMILES): COc1cc(C(N)=O)ccc1NC(=O)[C@@H]1NC2(CCCCC2)[C@@]2(C(=O)Nc3cc(Cl)ccc32)[C@H]1c1cccc(Cl)c1F
IC50 (SJSA-1 [1]): 0.12 µM

Structure (SMILES): O=C(NC12CCC(C(=O)O)(CC1)CC2)[C@@H]1NC2(CCCCC2)[C@@]2(C(=O)Nc3cc(Cl)ccc32)[C@H]1c1cccc(Cl)c1F
TGI (SJSA-1 [19]): Active
Vd (in vivo [10]): 0.734 L/kg
IC50 (SAOS-2): 26.7 µM
clearance (in vivo [12]): 0.119 L/h/kg
half-life (in vivo [4]): 4.3 h
IC50 (RS4-11 [20]): 0.062 µM
IC50 (LNCaP): 0.036 µM
AUC (in vivo [13]): 82.2 µg·h/mL
TGI (SJSA-1 [8]): Active
IC50 (SJSA-1 [1]): 0.089 µM
IC50 (HCT-116 [17]): 14 µM
IC50 (PC-3): 12.3 µM
IC50 (HCT-116 [18]): 0.137 µM

Structure (SMILES): O=C(O)Cc1ccc(NC(=O)[C@@H]2NC3(CCCCC3)[C@@]3(C(=O)Nc4cc(Cl)ccc43)[C@H]2c2cccc(Cl)c2F)cc1
IC50 (SJSA-1 [1]): 0.76 µM

Structure (SMILES): NS(=O)(=O)c1ccc(NC(=O)[C@@H]2NC3(CCCCC3)[C@@]3(C(=O)Nc4cc(Cl)ccc43)[C@H]2c2cccc(Cl)c2F)cc1
IC50 (SJSA-1 [1]): 11.2 µM

Structure (SMILES): CS(=O)(=O)NC(=O)C12CCC(NC(=O)[C@@H]3NC4(CCCCC4)[C@@]4(C(=O)Nc5cc(Cl)ccc54)[C@H]3c3cccc(Cl)c3F)(CC1)CC2
IC50 (SJSA-1 [1]): 0.37 µM

Structure (SMILES): CS(=O)(=O)NC(=O)c1ccc(NC(=O)[C@@H]2NC3(CCCCC3)[C@@]3(C(=O)Nc4cc(Cl)ccc43)[C@H]2c2cccc(Cl)c2F)cc1
IC50 (SJSA-1 [1]): 5.8 µM

Structure (SMILES): CS(=O)(=O)c1ccc(NC(=O)[C@@H]2NC3(CCCCC3)[C@@]3(C(=O)Nc4cc(Cl)ccc43)[C@H]2c2cccc(Cl)c2F)cc1
IC50 (SJSA-1 [1]): 0.14 µM

Structure (SMILES): O=C(N[C@H]1CC[C@H](C(=O)O)CC1)[C@@H]1NC2(CCCCC2)[C@@]2(C(=O)Nc3cc(Cl)ccc32)[C@H]1c1cccc(Cl)c1F
TGI (SJSA-1 [8]): Active
IC50 (SJSA-1 [1]): 0.15 µM

Structure (SMILES): O=C(NC[C@H]1CC[C@H](C(=O)O)CC1)[C@@H]1NC2(CCCCC2)[C@@]2(C(=O)Nc3cc(Cl)ccc32)[C@H]1c1cccc(Cl)c1F
IC50 (SJSA-1 [1]): 1.9 µM

Structure (SMILES): CC1(C)CCC2(CC1)N[C@@H](C(=O)Nc1ccc(C(=O)O)cc1)[C@H](c1cccc(Cl)c1F)[C@]21C(=O)Nc2cc(Cl)ccc21
Vd (in vivo [10]): 2.45 L/kg
Cmax (in vivo [11]): 0.968 µg/mL
TGI (SJSA-1 [21]): Dose-dependent effect
clearance (in vivo [12]): 0.69 L/h/kg
half-life (in vivo [4]): 4.5 h
AUC (in vivo [13]): 14.8 µg·h/mL
TGI (SJSA-1 [8]): Active
IC50 (SJSA-1 [1]): 0.013 µM
AUC (in vivo [14]): 10.2 µg·h/mL

Continued, in another order:

IC50 (SJSA-1 [1]): 6 µM
Structure (SMILES): Cc1oc([C@H]2[C@H](c3cccc(Cl)c3F)[C@]3(C(=O)Nc4cc(Cl)ccc43)C3(CCCCC3)N2C)nc1C(=O)O

Vd (in vivo [10]): 2.14 L/kg
Cmax (in vivo [11]): 1.55 µg/mL
clearance (in vivo [12]): 1.16 L/h/kg
half-life (in vivo [4]): 4 h
AUC (in vivo [13]): 8.63 µg·h/mL
AUC (in vivo [14]): 6.8 µg·h/mL
Structure (SMILES): O=C(O)c1ccc(NC(=O)[C@@H]2NC3(CCCCC3)[C@@]3(C(=O)Nc4cc(Cl)ccc43)[C@H]2c2cccc(Cl)c2F)cc1
TGI (SJSA-1 [8]): Active

IC50 (SJSA-1 [1]): 1.4 µM
Structure (SMILES): O=C(O)CCCNC(=O)[C@@H]1NC2(CCCCC2)[C@@]2(C(=O)Nc3cc(Cl)ccc32)[C@H]1c1cccc(Cl)c1F

IC50 (SJSA-1 [1]): 0.19 µM
Structure (SMILES): O=C(O)c1ccc(NC(=O)[C@@H]2NC3(CCCCC3)[C@@]3(C(=O)Nc4cc(Cl)ccc43)[C@H]2c2cccc(Cl)c2F)cc1F

IC50 (SJSA-1 [1]): 0.76 µM
Structure (SMILES): O=C(O)c1cccc(NC(=O)[C@@H]2NC3(CCCCC3)[C@@]3(C(=O)Nc4cc(Cl)ccc43)[C@H]2c2cccc(Cl)c2F)c1

IC50 (SJSA-1 [1]): 0.23 µM
Structure (SMILES): O=C(O)c1ccc(NC(=O)[C@@H]2NC3(CCCCC3)[C@@]3(C(=O)Nc4cc(Cl)ccc43)[C@H]2c2cccc(Cl)c2F)c(F)c1

IC50 (SJSA-1 [1]): 0.24 µM
Structure (SMILES): O=C(O)c1ccc(NC(=O)[C@@H]2NC3(CCCCC3)[C@@]3(C(=O)Nc4cc(Cl)ccc43)[C@H]2c2cccc(Cl)c2F)cn1

Vd (in vivo [10]): 1.25 L/kg
IC50 (SAOS-2): 22.7 µM
clearance (in vivo [12]): 0.257 L/h/kg
half-life (in vivo [4]): 4.6 h
IC50 (LNCaP): 0.018 µM
AUC (in vivo [13]): 38.3 µg·h/mL
IC50 (SJSA-1 [1]): 0.06 µM
IC50 (HCT-116 [17]): 8 µM
IC50 (PC-3): 22 µM
AUC (in vivo [14]): 39.1 µg·h/mL
IC50 (HCT-116 [18]): 0.104 µM
Structure (SMILES): CCN1[C@@H](C(=O)NC23CCC(C(=O)O)(CC2)CC3)[C@H](c2cccc(Cl)c2F)[C@]2(C(=O)Nc3cc(Cl)ccc32)C12CCCCC2 [ALRIZOMADLIN]
TGI (RS4-11 [15]): Dose-dependent effect
TGI (SJSA-1 [16]): Active

IC50 (SJSA-1 [1]): 0.24 µM
Structure (SMILES): CC(=O)N1CC(NC(=O)[C@@H]2NC3(CCCCC3)[C@@]3(C(=O)Nc4cc(Cl)ccc43)[C@H]2c2cccc(Cl)c2F)C1

IC50 (SJSA-1 [1]): > 10 µM
Structure (SMILES): CN1[C@@H](c2nc(C(=O)O)co2)[C@H](c2cccc(Cl)c2F)[C@]2(C(=O)Nc3cc(Cl)ccc32)C12CCCCC2

IC50 (SJSA-1 [1]): 2.69 µM
Structure (SMILES): CN1[C@@H](c2nc(CC(=O)O)cs2)[C@H](c2cccc(Cl)c2F)[C@]2(C(=O)Nc3cc(Cl)ccc32)C12CCCCC2

IC50 (SJSA-1 [1]): 0.22 µM
Structure (SMILES): O=C(N[C@H]1C[C@H](C(=O)O)C1)[C@@H]1NC2(CCCCC2)[C@@]2(C(=O)Nc3cc(Cl)ccc32)[C@H]1c1cccc(Cl)c1F

IC50 (SJSA-1 [1]): 6.2 µM
Structure (SMILES): O=C(O)c1ccc(NC(=O)[C@@H]2NC3(CCCCC3)[C@@]3(C(=O)Nc4cc(Cl)ccc43)[C@H]2c2cccc(Cl)c2F)o1

IC50 (SJSA-1 [1]): 12.1 µM
Structure (SMILES): Cc1noc([C@H]2[C@H](c3cccc(Cl)c3F)[C@]3(C(=O)Nc4cc(Cl)ccc43)C3(CCCCC3)N2C)n1

Vd (in vivo [10]): 1.1 L/kg
clearance (in vivo [12]): 0.352 L/h/kg
half-life (in vivo [4]): 3.9 h
AUC (in vivo [13]): 28.8 µg·h/mL
AUC (in vivo [14]): 35.2 µg·h/mL
Structure (SMILES): CN1[C@@H](C(=O)NC23CCC(C(=O)O)(CC2)CC3)[C@H](c2cccc(Cl)c2F)[C@]2(C(=O)Nc3cc(Cl)ccc32)C12CCCCC2
TGI (SJSA-1 [16]): Active

IC50 (SJSA-1 [1]): 5 µM
Structure (SMILES): Cc1nnc([C@H]2[C@H](c3cccc(Cl)c3F)[C@]3(C(=O)Nc4cc(Cl)ccc43)C3(CCCCC3)N2C)o1

IC50 (SJSA-1 [1]): 0.12 µM
Structure (SMILES): COc1cc(NC(=O)[C@@H]2NC3(CCCCC3)[C@@]3(C(=O)Nc4cc(Cl)ccc43)[C@H]2c2cccc(Cl)c2F)ccc1C(=O)O

IC50 (SJSA-1 [1]): 0.061 µM
Structure (SMILES): COc1cc(C(=O)O)ccc1NC(=O)[C@@H]1NC2(CCCCC2)[C@@]2(C(=O)Nc3cc(Cl)ccc32)[C@H]1c1cccc(Cl)c1F

IC50 (SJSA-1 [1]): 0.54 µM
Structure (SMILES): O=C(NC12CC(C(=O)O)(C1)C2)[C@@H]1NC2(CCCCC2)[C@@]2(C(=O)Nc3cc(Cl)ccc32)[C@H]1c1cccc(Cl)c1F

IC50 (SJSA-1 [1]): > 10 µM
Structure (SMILES): CN1[C@@H](c2nc(C(=O)O)cs2)[C@H](c2cccc(Cl)c2F)[C@]2(C(=O)Nc3cc(Cl)ccc32)C12CCCCC2

IC50 (SJSA-1 [1]): 3 µM
Structure (SMILES): Cc1nnc([C@H]2[C@H](c3cccc(Cl)c3F)[C@]3(C(=O)Nc4cc(Cl)ccc43)C3(CCCCC3)N2C)s1

IC50 (SJSA-1 [1]): 8.9 µM
Structure (SMILES): CS(=O)(=O)NC(=O)[C@@H]1NC2(CCCCC2)[C@@]2(C(=O)Nc3cc(Cl)ccc32)[C@H]1c1cccc(Cl)c1F
